Test results taken from PubChem BioAssay (NCI).
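Assay format: 96-well plates, 48-hour exposure. GI50 marks 50% less growth. TGI is the concentration that stops growth completely.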

Columns and labels:
Assay in all cases: NCI-60 cell line screen, 48 h
HOP-18 NSCLC = test system: HOP-18 NSCLC
LXFL 529 NSCLC = test system: LXFL 529 NSCLC
DLD-1 colon = test system: DLD-1 colon
M19-MEL melanoma = test system: M19-MEL melanoma
KM20L2 colon = test system: KM20L2 colon
XF 498 CNS = test system: XF 498 CNS
MDA-N = test system: MDA-N
DMS 114 small cell lung = test system: DMS 114 small cell lung
RXF-631 renal = test system: RXF-631 renal

| SMILES | TGI (HOP-18 NSCLC) [µM] | TGI (LXFL 529 NSCLC) [µM] | TGI (DLD-1 colon) [µM] | TGI (M19-MEL melanoma) [µM] | TGI (KM20L2 colon) [µM] | TGI (XF 498 CNS) [µM] | TGI (MDA-N) [µM] | TGI (DMS 114 small cell lung) [µM] | further results |
| --- | --- | --- | --- | --- | --- | --- | --- | --- | --- |
| CC[O-].CC[O-].O=C1C=C([O-])C(=O)c2ccccc21.O=C1C=C([O-])C(=O)c2ccccc21.[Ti+4] | > 100 | > 100 | > 100 | 3.81 | > 100 | > 100 |  |  | GI50 (HOP-18 NSCLC): > 100 µM; GI50 (LXFL 529 NSCLC): 83.3 µM; GI50 (DLD-1 colon): > 100 µM; GI50 (M19-MEL melanoma): 1.61 µM; GI50 (KM20L2 colon): 84.7 µM; GI50 (XF 498 CNS): > 100 µM |
| CC(C)(C)N1CC1CNC(=O)C(=O)NCC1CN1C(C)(C)C (configuration not stated) |  |  |  | 2.62 | 5.96 | 1.31 | > 92.9 | 2.49 |  |
| CC1=C2CC[C@@]3(C)C(=CCC3O)C2(C)CCC1=O (some centres not stated) | > 100 | > 100 | > 100 | > 100 | > 100 |  |  | > 100 | TGI (RXF-631 renal): > 100 µM |
| CC(=O)Oc1ccc2c(=O)c(C(C)=O)coc2c1 |  | > 100 |  | > 100 | > 100 | > 100 |  |  |  |
| OC1CC(O)O[C@H](c2ccccc2)C1 (some centres not stated) | > 100 | > 100 | > 100 | > 100 | > 100 |  |  |  |  |
| O=C1CCc2cc(Br)ccc2O1 |  |  |  |  |  |  | > 100 |  |  |
| COC(=O)c1cc(O)ccc1O |  | > 100 |  | > 100 |  | > 100 |  | > 100 | TGI (RXF-631 renal): > 100 µM |
| CCCCCc1cc(/C=C2/N=C(c3ccc[nH]3)C=C2OC)[nH]c1C |  |  |  |  |  |  | 0.155 |  |  |
| CCCCCCCCCCCCC(O)C1CCC(C(O)CCCCC(O)CCCCCC2CC(CC(C)=O)C(=O)O2)O1 (configuration not stated) | 23.3 | 16.3 | 21 | 12.5 | 19.7 | 8.44 | 4.81 | 7.78 | TGI (RXF-631 renal): 16.7 µM |
| OC1(C(Sc2ccccc2)Sc2ccccc2)CCCCCC1 |  |  | > 100 | > 100 | 9.27 | 35.7 |  | 68.9 |  |
| CCOC(=O)C#Cc1cccc(C#CC(=O)OCC)c1 |  |  |  |  |  |  | 6.44 |  |  |
| NNC(=O)/C(NC(=O)c1ccccc1)=C(\N)c1cccc([N+](=O)[O-])c1 | > 100 | > 100 | > 100 | > 100 |  | > 100 |  | > 100 | TGI (RXF-631 renal): > 100 µM |
| C=C(C)COc1ccc2c(c1)CCC1C2CCC2(C)C(=O)/C(=N/O)CC12 (configuration not stated) |  |  |  |  |  |  | 14.7 |  |  |
| O=C(O)CN1C(=O)OC(c2ccccc2)C1=O (configuration not stated) |  |  |  |  |  |  | > 100 |  |  |
| CCN(N=O)C1C2(CCCC2)NC(=O)C12CCCC2 (configuration not stated) | > 100 | > 100 | > 100 | > 100 | > 100 | > 100 |  | > 100 | TGI (RXF-631 renal): > 100 µM |
| CC(=O)OCc1nnn2c1C(OC(C)=O)CC2 (configuration not stated) |  | > 100 | > 100 | > 100 | > 100 | > 100 |  | > 100 | TGI (RXF-631 renal): > 100 µM |
| CCOC(=O)CCc1c(C)c2c(OC)cc(OC)cc2oc1=O | 99 | > 100 | > 100 | > 100 | > 100 | 93.8 |  |  |  |
| Cc1[nH]c(=O)n2c(C)nnc2c1C(=O)O |  | > 100 | > 100 | > 100 |  | > 100 |  | > 100 |  |
| COc1ccc(C2=C(c3ccccc3)C(=O)N3CCCC3C2)cc1 (configuration not stated) |  |  |  |  |  |  | > 100 |  | GI50 (MDA-N): 0.441 µM |
| CCOC(=O)C(C(=O)OCC)=C1C=C(c2ccccc2)c2ccccc21 |  | > 100 | > 100 | > 100 | > 100 | > 100 |  | > 100 |  |
| COc1cc(-c2oc3c(OC)c(O)c(OC)c(O)c3c(=O)c2OC)cc(OC)c1OC |  |  |  |  |  |  | > 100 |  |  |
| CC(=O)[O-].CC(=O)[O-].O=C([CH-]C(=O)c1ccccc1)c1ccccc1.[Nd+3].[OH3+] |  |  |  |  | > 100 |  |  |  | GI50 (KM20L2 colon): 30.5 µM |
| C[C@@H](NC1CCCC[C@@H]1O)c1ccccc1 (some centres not stated) | > 100 | > 100 | > 100 | > 100 | > 100 | > 100 |  |  |  |
